Experiments:
Format in all cases: cell-based
LAD-2 cells [1] = assay: LAD2 Degranulation Assay (Protocol 1), β-hexosaminidase release; settings: Homo sapiens, 1 μM Cortistatin-14, 30 minute preincubation, top concentration 3 μM
Protocol: (§1) LAD-2 cells were maintained at 37° C. with 5% CO2 and grown in complete StemPro-34 media supplemented with 1% L-Glutamate, 1% penicillin/streptomycin, and 250 ng/mL human SCF.
On the day of experiment, cells were collected by centrifugation and seeded in 384-well assay plates, at 4,000 cells per well in 10 μl freshly made assay buffer (10 mM HEPES, 130 mM NaCl, 5 mM KCl, 1.8 mM CaCl2), 1.0 mM MgCl2, 5.6 mM glucose, 0.1% BSA, pH=7.40). For dose-response assays, compounds solubilized in 100% DMSO at 30 mM were serially diluted (1:3) first in 100% DMSO, and 2 intermediate dilutions with assay buffer were used to establish a final top concentration of 3 μM (in assay plate). Final DMSO concentration was kept constant at 0.1% across plates for all assays. Cortistatin-14 at 30 mM stock concentration was solubilized in HBSS+0.1% BSA, stored at −20° C. in 5 μl aliquots and discarded after one freeze-thaw cycle. Final concentration of agonist used in both dose-response and single point assays was 1 μM, prepared in assay buffer.
(§2) Antagonist equilibrium was established with 30 minute preincubation, followed by no wash, direct addition, and stimulation of agonist for 30 minutes at 37° C. For detection of β-hexosaminidase activity, assay plates were centrifuged and 5 μl of cell-free supernatant from each assay well was transferred to a black-walled black-bottomed 384-well plate. Substrate solution (1 mM 4-Methylumbelliferyl N-acetyl-β-D-glucosaminide in citrate buffer, pH=4.5, 15 μl) was added to each well and plates were incubated for 1 hour at 37° C. The plate was read on an EnVision XCite plate reader for umbelliferone fluorescence intensity (λex=355 nm, λem=460 nm). Background-subtracted data was analyzed using either GraphPad Prism or a custom Python script to calculate IC50 using either Log[Antagonist] vs. response (4 parameter) nonlinear regression (dose-response assays).

human MRGPRX2 = target: T1, human MRGPRX2 (Homo sapiens, UniProt Q96LB1); assay: MRGPRX2 Activity Assay (IP-1 HTRF, antagonist mode); settings: FlpIn TRex-MRGPRX2-HEK293 cells; versus 1 μM Cortistatin-14 agonist; 30 minutes preincubation
T1 construct: expressed in transfected cells; host or cells: FlpIn TRex HEK293 (TRex-MRGPRX2-HEK), doxycycline-induced
T1 sequence (Q96LB1 1-330): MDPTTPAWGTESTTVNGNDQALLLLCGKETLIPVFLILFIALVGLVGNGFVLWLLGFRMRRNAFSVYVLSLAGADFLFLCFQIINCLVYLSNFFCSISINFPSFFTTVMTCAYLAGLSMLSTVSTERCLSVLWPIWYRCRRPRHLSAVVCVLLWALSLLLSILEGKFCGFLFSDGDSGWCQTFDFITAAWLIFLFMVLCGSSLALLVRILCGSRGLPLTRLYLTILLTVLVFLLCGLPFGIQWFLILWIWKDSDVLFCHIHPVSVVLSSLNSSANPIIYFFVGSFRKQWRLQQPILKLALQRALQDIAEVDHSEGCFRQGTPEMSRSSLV
Procedure, shortened: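 Doxycycline-induced (100 ng/mL, 18-24 h) TRex HEK293 cells stably expressing human MRGPRX2, in HBSS/20 mM HEPES/0.1% BSA/10 mM LiCl. Compounds (top final 30 uM, 1% DMSO) preincubated 30 min, then agonist stimulation 1 h at 37° C without wash. IP-1 accumulation read by HTRF; IC50 from 4-parameter fit.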

LAD-2 cells [2] = assay: LAD2 Degranulation Assay (Protocol 2), β-hexosaminidase release; settings: Homo sapiens; for IC50: 0.5 μM Cortistatin-14, 2 h preincubation, cells without SCF 18-24 hours, top concentration 3 μM; for activity at 0.25 µM: single point 250 nM, 0.5 μM Cortistatin-14, % control β-hexosaminidase activity
Protocol: as §1
18-24 hours prior to experiment, LAD-2 cells were collected and transferred to growth media without SCF. On the day of experiment, cells were collected by centrifugation and seeded in 384-well assay plates, at 4,000 cells per well in 17 μl freshly made assay buffer (10 mM HEPES, 137 mM NaCl, 2.7 mM KCl, 1.8 mM CaCl2), 1.0 mM MgCl2, 5.6 mM glucose, 0.4 mM NaH2PO4, 0.04% BSA, pH=7.40). For dose-response assays, compounds solubilized in 100% DMSO at 30 mM were serially diluted (1:3) first in 100% DMSO, and 2 intermediate dilutions with assay buffer were used to establish a final top concentration of 3 μM (in assay plate). For single point assays, dilution of DMSO stocks to 250 nM (in assay plate) was performed in the same manner as described for dose-response assays. Final DMSO concentration was kept constant at 0.1% across plates for all assays. Cortistatin-14 at 30 mM stock concentration was solubilized in HBSS+0.1% BSA, stored at −20° C. in 5 μl aliquots and discarded after one freeze-thaw cycle. Final concentration of agonist used in both dose-response and single point assays was 0.5 μM, prepared in assay buffer.
as §2, with “with 2 h” for “with 30 minute”, “[…])” for “15 μl)”, “(dose-response assays) or % control β-hexosaminidase activity (single point” for “(dose-response”

IC50 (LAD-2 cells [1]) [nM] | IC50 (human MRGPRX2) [nM] | IC50 (LAD-2 cells [2]) [nM] | SMILES | activity at 0.25 µM (LAD-2 cells [2]) [%]
> 3000 | 45 |  | C[C@@H](C(=O)Nc1cn(Cc2ccc(F)cc2F)c(C(F)(F)F)n1)N1CCC(F)(F)[C@@H](c2cc[n+]([O-])cc2)C1 (single isomer, unassigned) [Compound 7] | 
28 | 17 |  | Cc1nc(NC(=O)[C@H](C)N2CCC(F)(F)[C@@H](c3cc[n+]([O-])cc3)C2)cn1Cc1ccc(F)cc1F (single isomer, unassigned) [Compound 9] | 
1.6 | 2.1 |  | Cc1nc(NC(=O)[C@H](C)N2CCC(F)(F)[C@@H](c3cc[n+]([O-])cc3)C2)cn1Cc1cc(F)cc(F)c1 (single isomer, unassigned) [Compound 19] | 
0.7 | 3.3 |  | Cc1nc(NC(=O)[C@H](C)N2CCC(F)(F)CC2)cn1Cc1cc(F)cc(F)c1 (single isomer, unassigned) [Compound 21] | 
40 | 13 |  | C[C@H](C(=O)Nc1cn(Cc2cc(F)cc(F)c2)c(C(F)(F)F)n1)N1CCC(F)(F)[C@@H](c2cc[n+]([O-])cc2)C1 (single isomer, unassigned) [Compound 26] | 
19 | 2.1 |  | C[C@H](C(=O)Nc1coc(Cc2cc(F)cc(F)c2)n1)N1CCC(F)(F)[C@@H](c2cc[n+]([O-])cc2)C1 (single isomer, unassigned) [Compound 28] | 
22 | 4 |  | C[C@H](C(=O)Nc1cn(Cc2cc(F)cc(F)c2)cn1)N1CCC(F)(F)[C@@H](c2ccc(=O)[nH]c2)C1 (single isomer, unassigned) [Compound 55] | 
976 | 76 |  | C[C@@H](C(=O)Nc1noc(Cc2cc(F)cc(F)c2)n1)N1CCC(F)(F)[C@@H](c2cc[n+]([O-])cc2)C1 (single isomer, unassigned) [Compound 56] | 
30 | 23 |  | C[C@H](C(=O)Nc1cn(Cc2cc(F)cc(F)c2)cn1)N1CCC(F)(F)[C@@H](c2ccc(=O)n(C)c2)C1 (single isomer, unassigned) [Compound 68] | 
20 | 12 |  | C[C@H](C(=O)Nc1cn(Cc2cc(F)cc(F)c2)cn1)N1CCC(F)(F)[C@@H](c2c[nH]c(=O)c(CO)c2)C1 (single isomer, unassigned) [Compound 72] | 
51 | 18 |  | C[C@H](C(=O)Nc1cn(Cc2cc(F)cc(F)c2)c(C(F)(F)F)n1)N1CCC(F)(F)[C@H](c2ccc(=O)[nH]c2)C1 (single isomer, unassigned) [Compound 77] | 
> 3000 | 755 |  | C[C@@H](C(=O)Nc1cn(Cc2cc(F)cc(F)c2)c(Cl)n1)N1CCC(F)(F)[C@@H](c2cc[n+]([O-])cc2)C1 (single isomer, unassigned) [Compound 80] | 
100 | 28 |  | C[C@H](C(=O)Nc1nc2ccccc2s1)N1CCC(F)(F)[C@@H](c2cc[n+]([O-])cc2)C1 (single isomer, unassigned) [Compound 85] | 
 | 3.5 | 34 | C[C@@H](C(=O)Nc1cn(Cc2cc(F)cc(F)c2)c(C(F)F)n1)N1CCC(F)(F)[C@@H](c2c[nH]c(=O)c(CO)c2)C1 (single isomer, unassigned) [Compound 490] | 
 | > 30000 | > 3000 | C[C@@H](C(=O)Nc1cn2c(n1)CC[C@@H]2c1cc(F)cc(F)c1)N1CCC(F)(F)[C@@H](c2ccc(=O)[nH]c2)C1 (single isomer, unassigned) [Compound 493] | 
 | 686 | 79 | C[C@H](C(=O)Nc1cn2c(n1)CC[C@@H]2c1cc(F)cc(F)c1)N1CCCCC1 (single isomer, unassigned) [Compound 498] | 
 | > 30000 | > 3000 | C[C@H](C(=O)Nc1cn2c(n1)CC[C@H]2c1cc(F)cc(F)c1)N1CCCCC1 (single isomer, unassigned) [Compound 499] | 
 | > 30000 | > 3000 | C[C@@H](C(=O)Nc1cn2c(n1)CC[C@H]2c1cc(F)cc(F)c1)N1CCCCC1 (single isomer, unassigned) [Compound 500] | 
 | 592 | 614 | C[C@@H](C(=O)Nc1cc2n(n1)CC[C@H]2c1cc(F)cc(F)c1)N1CCC(F)(F)[C@@H](c2ccc(=O)[nH]c2)C1 (single isomer, unassigned) [Compound 531] | 
 |  |  | C[C@@H](C(=O)Nc1cn2c(n1)CC[C@@H]2c1cc(F)cc(F)c1)N1CCC(F)(F)[C@H](c2c[nH]c(=O)c(CN3CCC(F)(F)CC3)c2)C1 (single isomer, unassigned) [Compound 543] | 59
212 | 220 |  | O=C(Nc1cn(Cc2cc(F)cc(F)c2)cn1)[C@@H]1C(F)(F)C12CCC2 [Compound 29, (R)—N-(1-(3,5-difluorobenzyl)-1H-imidazol-4-yl)-2,2-difluorospiro[2.3]hexane-1-carboxamide] | 
 |  |  | C[C@@H](C(=O)Nc1cn2c(n1)CC[C@@H]2c1cc(F)cc(F)c1)N1CCC(F)(F)C(c2c[nH]c(=O)c(CO)n2)C1 (stereo partly drawn) [Compound 544, (2S)-2-(4,4-difluoro-3-(6-(hydroxymethyl)-5-oxo-4,5-dihydropyrazin-2-yl)piperidin-1-yl)-N—((R)-5-(3,5-difluorophenyl)-6,7-dihydro-5H-pyrrolo[1,2-a]imidazol-2-yl)propanamide] | 81
 |  |  | C[C@@H](C(=O)Nc1cn2c(n1)CC[C@@H]2c1cc(F)cc(F)c1)N1CCC(F)(F)C(c2cc[n+]([O-])c(C(O)CO)c2)C1 (stereo partly drawn) [Compound 545, 4-(1-((S)-1-(((R)-5-(3,5-difluorophenyl)-6,7-dihydro-5H-pyrrolo[1,2-a]imidazol-2-yl)amino)-1-oxopropan-2-yl)-4,4-difluoropiperidin-3-yl)-2-(1,2-dihydroxyethyl)pyridine 1-oxide] | 16
 |  |  | C[C@@H](C(=O)Nc1cn2c(n1)CC[C@@H]2c1cc(F)cc(F)c1)N1CCC(F)(F)C(c2c[nH]c(=O)c(C(O)CO)c2)C1 (stereo partly drawn) [Compound 546, (2S)—N—((R)-5-(3,5-difluorophenyl)-6,7-dihydro-5H-pyrrolo[1,2-a]imidazol-2-yl)-2-(3-(5-(1,2-dihydroxyethyl)-6-oxo-1,6-dihydropyridin-3-yl)-4,4-difluoropiperidin-1-yl)propanamide] | 34

Source: patent publication US20250122171A1, “Substituted Amine Compounds, Compositions and Methods of Use” (Deep Apple Therapeutics, Inc., priority 2023, published 2025)
